Tests used:
Assay in all cases: relative viability (nuclei count vs DMSO), 5 days (fraction); higher = more cells survive
[1] = compound: CC1=CC(=NN1)NC2=CC(=NC(=N2)/C=C/C3=CC=CC=C3)N4CCN(CC4)C + Cc1cc(Nc2cc(N3CCN(C)CC3)nc(Sc3ccc(NC(=O)C4CC4)cc3)n2)n[nH]1 [Tozasertib] (partner 0.1 µM)
Summary of the method: (§1)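 Five library-drug doses in √10 steps were combined with a fixed anchor-drug dose, or a single drug was given alone, by pin tool to lung cancer cell lines in 1536-well plates the day after seeding. Nuclei were stained and counted after 5 days. Relative viability is the nuclei count in treated wells over that in vehicle wells, taken as the median of duplicate plates.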

Obatoclax + AZD7762 = compound: COC1=CC(c2cc3ccccc3[nH]2)=N/C1=C\c1[nH]c(C)cc1C [Obatoclax] + NC(=O)Nc1cc(-c2cccc(F)c2)sc1C(=O)N[C@H]1CCCNC1 [AZD7762] (partner 0.2 µM)
Summary of the method: as §1

[2] = compound: CC1=CC(=NN1)NC2=CC(=NC(=N2)/C=C/C3=CC=CC=C3)N4CCN(CC4)C + C[C@@H](Oc1cc(-c2cnn(C3CCNCC3)c2)cnc1N)c1c(Cl)ccc(F)c1Cl [Crizotinib] (partner 1 µM)
Summary of the method: as §1

Row | Cell Line | relative viability ([1]; first compound 0.08 µM) | relative viability ([1]; first compound 0.253 µM) | relative viability ([1]; first compound 0.8 µM) | relative viability ([1]; first compound 2.53 µM) | relative viability ([1]; first compound 8 µM) | relative viability (Obatoclax + AZD7762; first compound 0.01 µM) | relative viability (Obatoclax + AZD7762; first compound 0.03162 µM) | relative viability (Obatoclax + AZD7762; first compound 0.1 µM) | relative viability (Obatoclax + AZD7762; first compound 0.3162 µM) | relative viability (Obatoclax + AZD7762; first compound 1 µM) | relative viability ([2]; first compound 0.08 µM) | relative viability ([2]; first compound 0.253 µM) | relative viability ([2]; first compound 0.8 µM) | relative viability ([2]; first compound 2.53 µM) | relative viability ([2]; first compound 8 µM)
1 | NCI-H1793 | 0.298 | 0.537 | 0.207 | 0.123 | 0.111 | 0.484 | 0.419 | 0.499 | 0.368 | 0.209 |  |  |  |  | 
2 | NCI-H1792 |  |  |  |  |  | 0.732 | 0.482 | 0.513 | 0.527 | 0.213 | 0.942 | 0.982 | 0.966 | 0.815 | 0.165
3 | SW 900 | 0.594 | 0.667 | 0.559 | 0.326 | 0.174 | 0.588 | 0.489 | 0.671 | 0.46 | 0.519 |  |  |  |  | 
4 | EBC-1 |  |  |  |  |  |  |  |  |  |  | 0.188 | 0.185 | 0.213 | 0.137 | 0.108
5 | NCI-H1650 | 0.384 | 0.384 | 0.373 | 0.187 | 0.169 |  |  |  |  |  | 1.07 | 1.05 | 0.63 | 0.192 | 0.109
6 | NCI-H1395 | 0.76 | 0.751 | 0.566 | 0.496 | 0.315 | 0.396 | 0.395 | 0.393 | 0.375 | 0.348 |  |  |  |  | 
7 | SW 1573 | 0.213 | 0.162 | 0.162 | 0.133 | 0.0849 |  |  |  |  |  | 0.886 | 0.829 | 0.604 | 0.194 | 0.1
8 | NCI-H1299 |  |  |  |  |  |  |  |  |  |  | 0.951 | 0.938 | 0.938 | 0.442 | 0.222
9 | SK-LU-1 | 0.347 | 0.313 | 0.304 | 0.156 | 0.0914 |  |  |  |  |  | 1.01 | 0.792 | 0.725 | 0.274 | 0.137
10 | COR-L23 | 0.163 | 0.182 | 0.148 | 0.1 | 0.0908 |  |  |  |  |  | 0.696 | 0.676 | 0.41 | 0.159 | 0.0747
11 | A549 |  |  |  |  |  |  |  |  |  |  | 0.873 | 0.537 | 0.257 | 0.112 | 0.0338
12 | NCI-H2023 | 0.266 | 0.305 | 0.235 | 0.0983 | 0.0659 |  |  |  |  |  | 0.631 | 0.611 | 0.343 | 0.0794 | 0.0532
13 | UMC-11 | 0.191 | 0.212 | 0.206 | 0.183 | 0.162 |  |  |  |  |  | 0.519 | 0.528 | 0.41 | 0.0737 | 0.062
14 | NCI-H1623 | 0.4 | 0.441 | 0.414 | 0.397 | 0.342 |  |  |  |  |  |  |  |  |  | 
15 | IA-LM |  |  |  |  |  |  |  |  |  |  |  | 0.899 | 0.884 | 0.38 | 0.0798
16 | NCI-H2009 | 0.656 | 0.73 | 0.663 | 0.368 | 0.217 |  |  |  |  |  | 1.06 | 0.94 | 1.02 | 0.534 | 0.22

— the supplement of paper PMC10307832
